Results from patent publication US20210299059A1, “INJECTABLE PHARMACEUTICAL COMPOSITION AND PREPARATION METHOD THEREFOR” (Jiangsu Hengrui Medicine CO., LTD., priority 2018, published 2021).

Columns and labels:
[1] = cited from earlier work
[2] = cited from earlier work; remark: listed apart in the source
[3] = Pharmacokinetics study, subcutaneous apixaban injection (Embodiment 4); format: in vivo, humans; conditions: human, plasma, sc, 2.5 mg, plasma drug concentration of apixaban, 1 mL of 2.5 mg/mL apixaban injection subcutaneously

concentration at 0 h ([3]; Mean of three subjects): 0 ng/mL | concentration at 0.25 h ([3]; Mean of three subjects): 6.19 ng/mL | concentration at 0.5 h ([3]; Mean of three subjects): 14.5 ng/mL | concentration at 1 h ([3]; Mean of three subjects): 27.1 ng/mL | concentration at 2 h ([3]; Mean of three subjects): 40.6 ng/mL | concentration at 3 h ([3]; Mean of three subjects): 47.3 ng/mL | concentration at 4 h ([3]; Mean of three subjects): 51.2 ng/mL | concentration at 5 h ([3]; Mean of three subjects): 43.4 ng/mL | concentration at 6 h ([3]; Mean of three subjects): 41.6 ng/mL | concentration at 8 h ([3]; Mean of three subjects): 39.3 ng/mL | concentration at 10 h ([3]; Mean of three subjects): 32.2 ng/mL | concentration at 16 h ([3]; Mean of three subjects): 21.2 ng/mL | concentration at 24 h ([3]; Mean of three subjects): 13.8 ng/mL | concentration at 0 h ([3]; subject C-01): 0 ng/mL | concentration at 0.25 h ([3]; subject C-01): 8.08 ng/mL | concentration at 0.5 h ([3]; subject C-01): 18.2 ng/mL | concentration at 1 h ([3]; subject C-01): 35.8 ng/mL | concentration at 2 h ([3]; subject C-01): 52 ng/mL | concentration at 3 h ([3]; subject C-01): 62.1 ng/mL | concentration at 4 h ([3]; subject C-01): 68.8 ng/mL | concentration at 5 h ([3]; subject C-01): 52.4 ng/mL | concentration at 6 h ([3]; subject C-01): 48.8 ng/mL | concentration at 8 h ([3]; subject C-01): 46.7 ng/mL | concentration at 10 h ([3]; subject C-01): 37.6 ng/mL | concentration at 16 h ([3]; subject C-01): 22.8 ng/mL | concentration at 24 h ([3]; subject C-01): 14.3 ng/mL | concentration at 0 h ([3]; subject C-02): 0 ng/mL | concentration at 0.25 h ([3]; subject C-02): 5.36 ng/mL | concentration at 0.5 h ([3]; subject C-02): 14.3 ng/mL | concentration at 1 h ([3]; subject C-02): 23.8 ng/mL | concentration at 2 h ([3]; subject C-02): 37.9 ng/mL | concentration at 3 h ([3]; subject C-02): 43.2 ng/mL | concentration at 4 h ([3]; subject C-02): 44.8 ng/mL | concentration at 5 h ([3]; subject C-02): 38.1 ng/mL | concentration at 6 h ([3]; subject C-02): 40.4 ng/mL | concentration at 8 h ([3]; subject C-02): 33.4 ng/mL | concentration at 10 h ([3]; subject C-02): 28.9 ng/mL | concentration at 16 h ([3]; subject C-02): 19.2 ng/mL | concentration at 24 h ([3]; subject C-02): 11.4 ng/mL | concentration at 0 h ([3]; subject C-03): 0 ng/mL | concentration at 0.25 h ([3]; subject C-03): 5.13 ng/mL | concentration at 0.5 h ([3]; subject C-03): 10.9 ng/mL | concentration at 1 h ([3]; subject C-03): 21.7 ng/mL | concentration at 2 h ([3]; subject C-03): 31.9 ng/mL | concentration at 3 h ([3]; subject C-03): 36.6 ng/mL | concentration at 4 h ([3]; subject C-03): 40 ng/mL | concentration at 5 h ([3]; subject C-03): 39.7 ng/mL | concentration at 6 h ([3]; subject C-03): 35.5 ng/mL | concentration at 8 h ([3]; subject C-03): 37.6 ng/mL | concentration at 10 h ([3]; subject C-03): 30.1 ng/mL | concentration at 16 h ([3]; subject C-03): 21.6 ng/mL | concentration at 24 h ([3]; subject C-03): 15.8 ng/mL
SMILES: COc1ccc(-n2nc(C(N)=O)c3c2C(=O)N(c2ccc(N4CCCCC4=O)cc2)CC3)cc1 [apixaban, Apixaban]
oral bioavailability [1]: approximately 50% | ionization ([2]; at physiological pH (1.2 to 6.8)): not ionized | LogP [2]: 3.53 | solubility ([2]; in the physiological pH range (1.2 to 6.8)): about 0.04 mg/ml
